In patent US8455475B2 (Gruenenthal GmbH, priority 2009, dated 2013):

Each compound was assayed against T1, rat B1R (bradykinin receptor 1) (Rattus norvegicus, UniProt P97583) (assay: FLIPR Ca2+ assay (Fluo-4) on CHO K1 cells stably transfected with the B1R gene of the rat (rB1R cells): % inhibition at 10 μM / IC50, agonist Des-Arg9-bradykinin). Conditions: CHO-K1, rat B1R.
T1 construct: expressed in transfected cells; host or cells: CHO K1 cells
T1 sequence (P97583 1-337): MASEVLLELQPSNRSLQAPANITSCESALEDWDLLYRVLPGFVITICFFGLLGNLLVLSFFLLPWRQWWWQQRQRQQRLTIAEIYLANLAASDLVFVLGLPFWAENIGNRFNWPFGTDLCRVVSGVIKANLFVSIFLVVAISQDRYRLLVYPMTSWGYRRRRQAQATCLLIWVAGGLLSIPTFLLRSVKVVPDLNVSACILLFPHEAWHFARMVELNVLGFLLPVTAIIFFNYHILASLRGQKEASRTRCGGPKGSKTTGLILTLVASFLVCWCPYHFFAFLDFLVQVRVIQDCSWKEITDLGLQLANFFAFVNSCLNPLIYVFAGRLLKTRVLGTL
Format: cell-based
Outline: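 Stable CHO K1 lines, Fluo-4 dye, probenecid-containing buffer. Cpd 10 μM or dose range, 10–20 min, then EC80 agonist (h: Lys-Des-Arg9-BK; r: Des-Arg9-BK). Readout peak FC; % inhibition vs max; IC50 from n=2–3, N≥2.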

Row | Structure (SMILES) | inhibition at 10 µM
1 | O=C(NC1CCc2ccc(C(=O)N3CCC4(CCN(c5ccncc5)CC4)C3)cc21)C1CCCC1 (stereo not shown) [IND_CC-394, N-[6-(8-Pyridin-4-yl-2,8-diazaspiro[4.5]decane-2-carbonyl)-2,3-dihydro-1H-inden-1-yl]-cyclopentanecarboxylic acid amide] | 103%
2 | O=C(NC1CCc2ccc(C(=O)N3CCC4(CC3)CCN(c3ccncc3)CC4)cc21)c1cnccn1 (stereo not shown) [IND_CC-397, N-[6-(9-Pyridin-4-yl-3,9-diazaspiro[5.5]undecane-3-carbonyl)-2,3-dihydro-1H-inden-1-yl]-pyrazine-2-carboxylic acid amide] | 68%
3 | O=C(NC1CCc2ccc(C(=O)N3CCC4(CCN(c5ccncc5)CC4)C3)cc21)c1cnccn1 (stereo not shown) [IND_CC-398, N-[6-(8-Pyridin-4-yl-2,8-diazaspiro[4.5]decane-2-carbonyl)-2,3-dihydro-1H-inden-1-yl]-pyrazine-2-carboxylic acid amide] | 88%
4 | O=C(NC1CCc2ccc(C(=O)N3CCC4(CC3)CCN(c3ccncc3)CC4)cc21)c1ccccc1F (stereo not shown) [IND_CC-399, 2-Fluoro-N-[6-(9-pyridin-4-yl-3,9-diazaspiro[5.5]undecane-3-carbonyl)-2,3-dihydro-1H-inden-1-yl]-benzamide] | 101%
5 | O=C(NC1CCc2ccc(C(=O)N3CCC4(CCN(c5ccncc5)CC4)C3)cc21)c1ccccc1F (stereo not shown) [IND_CC-402, 2-Fluoro-N-[6-(8-pyridin-4-yl-2,8-diazaspiro[4.5]decane-2-carbonyl)-2,3-dihydro-1H-inden-1-yl]-benzamide] | 102%
6 | O=C(c1ccc2c(c1)C(NS(=O)(=O)c1c(Cl)cc(C(F)(F)F)cc1Cl)CC2)N1CCC2(CCN(c3ccncc3)CC2)C1 (stereo not shown) [IND_CC-404, 2,6-Dichloro-N-[6-(8-pyridin-4-yl-2,8-diazaspiro[4.5]decane-2-carbonyl)-2,3-dihydro-1H-inden-1-yl]-4-(trifluoromethyl)-benzenesulfonic acid amide] | 92%
7 | CN(C1CCc2ccc(C(=O)N3CCC4(CC3)CCN(c3ccncc3)CC4)cc21)S(=O)(=O)c1c(Cl)cc(Cl)cc1Cl (stereo not shown) [IND_CC-406, 2,4,6-Trichloro-N-methyl-N-[6-(9-pyridin-4-yl-3,9-diazaspiro[5.5]undecane-3-carbonyl)-2,3-dihydro-1H-inden-1-yl]-benzenesulfonic acid amide] | 102%
8 | CC(C)CC(=O)NC1CCc2ccc(C(=O)N3CCC4(CCN(c5ccncc5)CC4)C3)cc21 (stereo not shown) [IND_CC-409, 3-Methyl-N-[6-(8-pyridin-4-yl-2,8-diazaspiro[4.5]decane-2-carbonyl)-2,3-dihydro-1H-inden-1-yl]-butyramide] | 102%
9 | O=C(CCC1CCCC1)NC1CCc2ccc(C(=O)N3CCC4(CCN(c5ccncc5)CC4)C3)cc21 (stereo not shown) [IND_CC-413, 3-Cyclopentyl-N-[6-(8-pyridin-4-yl-2,8-diazaspiro[4.5]decane-2-carbonyl)-2,3-dihydro-1H-inden-1-yl]-propionamide] | 103%
10 | CN(C(=O)C1CCC1)C1CCc2ccc(C(=O)N3CCC4(CC3)CCN(c3ccncc3)CC4)cc21 (stereo not shown) [IND_CC-414, N-Methyl-N-[6-(9-pyridin-4-yl-3,9-diazaspiro[5.5]undecane-3-carbonyl)-2,3-dihydro-1H-inden-1-yl]-cyclobutanecarboxylic acid amide] | 102%
11 | O=C(NC1CCc2ccc(C(=O)N3CCC4(CCN(c5ccncc5)CC4)C3)cc21)C1CCC1 (stereo not shown) [IND_CC-415, N-[6-(8-Pyridin-4-yl-2,8-diazaspiro[4.5]decane-2-carbonyl)-2,3-dihydro-1H-inden-1-yl]-cyclobutanecarboxylic acid amide] | 100%
12 | CCC(C)C(=O)N(C)C1CCc2ccc(C(=O)N3CCC4(CC3)CCN(c3ccncc3)CC4)cc21 (stereo not shown) [IND_CC-416, N,2-Dimethyl-N-[6-(9-pyridin-4-yl-3,9-diazaspiro[5.5]undecane-3-carbonyl)-2,3-dihydro-1H-inden-1-yl]-butyramide] | 101%
13 | CCC(C)C(=O)NC1CCc2ccc(C(=O)N3CCC4(CCN(c5ccncc5)CC4)C3)cc21 (stereo not shown) [IND_CC-417, 2-Methyl-N-[6-(8-pyridin-4-yl-2,8-diazaspiro[4.5]decane-2-carbonyl)-2,3-dihydro-1H-inden-1-yl]-butyramide] | 102%
14 | O=C(NC1CCc2ccc(C(=O)N3CCC4(CCN(S(=O)(=O)c5ccc(F)cc5F)CC4)C3)cc21)c1ccccc1Cl (stereo not shown) [IND_CC-500, 2-Chloro-N-[6-[8-[(2,4-difluoro-phenyl)sulfonyl]-2,8-diazaspiro[4.5]decane-2-carbonyl]-2,3-dihydro-1H-inden-1-yl]-benzamide] | 51%

The next lines start with the values.

Row | inhibition at 10 µM | Structure (SMILES)
15 | 58% | CN(C(=O)c1ccc(C(F)(F)F)cn1)C1CCc2ccc(C(=O)N3CCC4(CC3)CCN(c3ccncc3)CC4)cc21 (stereo not shown) [IND_CC-395, N-Methyl-N-[6-(9-pyridin-4-yl-3,9-diazaspiro[5.5]undecane-3-carbonyl)-2,3-dihydro-1H-inden-1-yl]-5-(trifluoromethyl)-pyridine-2-carboxylic acid amide]
16 | 81% | O=C(NC1CCc2ccc(C(=O)N3CCC4(CCN(c5ccncc5)CC4)C3)cc21)c1ccc(C(F)(F)F)cn1 (stereo not shown) [IND_CC-396, N-[6-(8-Pyridin-4-yl-2,8-diazaspiro[4.5]decane-2-carbonyl)-2,3-dihydro-1H-inden-1-yl]-5-(trifluoromethyl)-pyridine-2-carboxylic acid amide]
17 | 103% | CN(C(=O)c1ccccc1F)C1CCc2ccc(C(=O)N3CCC4(CC3)CCN(c3ccncc3)CC4)cc21 (stereo not shown) [IND_CC-400, 2-Fluoro-N-methyl-N-[6-(9-pyridin-4-yl-3,9-diazaspiro[5.5]undecane-3-carbonyl)-2,3-dihydro-1H-inden-1-yl]-benzamide]
18 | 103% | O=C(NC1CCc2ccc(C(=O)N3CCC4(CC3)CCN(c3ccncc3)C4)cc21)c1ccccc1F (stereo not shown) [IND_CC-401, 2-Fluoro-N-[6-(2-pyridin-4-yl-2,8-diazaspiro[4.5]decane-8-carbonyl)-2,3-dihydro-1H-inden-1-yl]-benzamide]
19 | 97% | CN(C1CCc2ccc(C(=O)N3CCC4(CC3)CCN(c3ccncc3)CC4)cc21)S(=O)(=O)c1c(Cl)cc(C(F)(F)F)cc1Cl (stereo not shown) [IND_CC-403, 2,6-Dichloro-N-methyl-N-[6-(9-pyridin-4-yl-3,9-diazaspiro[5.5]undecane-3-carbonyl)-2,3-dihydro-1H-inden-1-yl]-4-(trifluoromethyl)-benzenesulfonic acid amide]
20 | 96% | CN(C1CCc2ccc(C(=O)N3CCC4(CC3)CCN(c3ccncc3)CC4)cc21)S(=O)(=O)c1ccc(Br)cc1Cl (stereo not shown) [IND_CC-405, 4-Bromo-2-chloro-N-methyl-N-[6-(9-pyridin-4-yl-3,9-diazaspiro[5.5]undecane-3-carbonyl)-2,3-dihydro-1H-inden-1-yl]-benzenesulfonic acid amide]
21 | 101% | O=C(c1ccc2c(c1)C(NS(=O)(=O)c1c(Cl)cc(Cl)cc1Cl)CC2)N1CCC2(CCN(c3ccncc3)CC2)C1 (stereo not shown) [IND_CC-407, 2,4,6-Trichloro-N-[6-(8-pyridin-4-yl-2,8-diazaspiro[4.5]decane-2-carbonyl)-2,3-dihydro-1H-inden-1-yl]-benzenesulfonic acid amide]
22 | 97% | CCCC(=O)N(C)C1CCc2ccc(C(=O)N3CCC4(CC3)CCN(c3ccncc3)CC4)cc21 (stereo not shown) [IND_CC-410, N-Methyl-N-[6-(9-pyridin-4-yl-3,9-diazaspiro[5.5]undecane-3-carbonyl)-2,3-dihydro-1H-inden-1-yl]-butyramide]
23 | 101% | CCCC(=O)NC1CCc2ccc(C(=O)N3CCC4(CCN(c5ccncc5)CC4)C3)cc21 (stereo not shown) [IND_CC-411, N-[6-(8-Pyridin-4-yl-2,8-diazaspiro[4.5]decane-2-carbonyl)-2,3-dihydro-1H-inden-1-yl]-butyramide]
24 | 99% | CN(C(=O)CCC1CCCC1)C1CCc2ccc(C(=O)N3CCC4(CC3)CCN(c3ccncc3)CC4)cc21 (stereo not shown) [IND_CC-412, 3-Cyclopentyl-N-methyl-N-[6-(9-pyridin-4-yl-3,9-diazaspiro[5.5]undecane-3-carbonyl)-2,3-dihydro-1H-inden-1-yl]-propionamide]
25 | 99% | CC(C)C(=O)N(C)C1CCc2ccc(C(=O)N3CCC4(CC3)CCN(c3ccncc3)CC4)cc21 (stereo not shown) [IND_CC-418, N,2-Dimethyl-N-[6-(9-pyridin-4-yl-3,9-diazaspiro[5.5]undecane-3-carbonyl)-2,3-dihydro-1H-inden-1-yl]-propionamide]
26 | 101% | CC(C)C(=O)NC1CCc2ccc(C(=O)N3CCC4(CCN(c5ccncc5)CC4)C3)cc21 (stereo not shown) [IND_CC-419, 2-Methyl-N-[6-(8-pyridin-4-yl-2,8-diazaspiro[4.5]decane-2-carbonyl)-2,3-dihydro-1H-inden-1-yl]-propionamide]
27 | 100% | CCC(CC)C(=O)NC1CCc2ccc(C(=O)N3CCC4(CCN(c5ccncc5)CC4)C3)cc21 (stereo not shown) [IND_CC-420, 2-Ethyl-N-[6-(8-pyridin-4-yl-2,8-diazaspiro[4.5]decane-2-carbonyl)-2,3-dihydro-1H-inden-1-yl]-butyramide]
28 | 56% | N#Cc1ccccc1S(=O)(=O)N1CCC2(CCN(C(=O)c3ccc4c(c3)C(NC(=O)c3ccccc3Cl)CC4)C2)CC1 (stereo not shown) [IND_CC-501, 2-Chloro-N-[6-[8-[(2-cyano-phenyl)sulfonyl]-2,8-diazaspiro[4.5]decane-2-carbonyl]-2,3-dihydro-1H-inden-1-yl]-benzamide]
